Measured values taken from patent US12180193B2, “Accelerating fibrosarcoma protein degrading compounds and associated methods of use” (Arvinas Operations, Inc., priority 2020, dated 2024).

How the values were obtained:
[1] = biological target: T1, BRAF V600E (Homo sapiens, UniProt P15056, V600E); experiment: Cellular assay of target protein degradation, T-Rex 293 cells stably transfected with HA-BRAF_V600E (HA immunofluorescence, high content imaging); type: cell-based; settings: T-Rex 293 HA-BRAF V600E; for DC50: half maximal degradation, read-out: BRaf V600E DC50; for Dmax: maximum degradation observed
T1 construct: expressed in transfected cells
T1 sequence (P15056 whole entry V600E): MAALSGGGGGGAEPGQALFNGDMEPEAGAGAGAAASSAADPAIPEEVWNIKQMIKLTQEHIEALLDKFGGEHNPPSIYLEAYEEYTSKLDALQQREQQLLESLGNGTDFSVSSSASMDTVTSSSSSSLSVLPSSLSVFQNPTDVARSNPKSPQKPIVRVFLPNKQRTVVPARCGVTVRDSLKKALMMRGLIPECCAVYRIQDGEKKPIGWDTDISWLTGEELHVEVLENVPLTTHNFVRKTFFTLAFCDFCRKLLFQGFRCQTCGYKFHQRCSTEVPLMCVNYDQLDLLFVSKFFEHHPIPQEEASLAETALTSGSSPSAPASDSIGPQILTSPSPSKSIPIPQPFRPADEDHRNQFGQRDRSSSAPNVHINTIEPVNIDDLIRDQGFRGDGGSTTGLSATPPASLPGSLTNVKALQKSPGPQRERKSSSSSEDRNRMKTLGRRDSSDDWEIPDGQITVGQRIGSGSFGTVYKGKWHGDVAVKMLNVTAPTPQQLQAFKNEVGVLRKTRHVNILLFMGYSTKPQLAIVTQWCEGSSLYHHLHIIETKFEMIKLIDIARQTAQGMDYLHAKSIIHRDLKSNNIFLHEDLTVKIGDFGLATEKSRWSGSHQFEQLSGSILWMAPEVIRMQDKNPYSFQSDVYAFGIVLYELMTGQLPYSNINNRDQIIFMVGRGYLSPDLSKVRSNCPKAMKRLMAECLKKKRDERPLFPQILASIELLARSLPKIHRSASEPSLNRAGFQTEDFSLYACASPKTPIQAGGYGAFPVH
Method in brief: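 Doxycycline-induced (1 ng/mL) T-Rex 293 cells expressing HA-BRAF V600E treated 24 h at 37 °C with compound at 1 μM to 0.1 nM final in 0.1% DMSO. Remaining HA-tagged protein quantified by fixed-cell anti-HA immunofluorescence and high-content imaging; DC50 and Dmax (% of control) derived.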

[2] = biological target: T2, BRAF G466V (Homo sapiens, UniProt P15056, G466V); experiment: Cellular assay of target protein degradation, T-Rex 293 cells stably transfected with HA-BRAF G466V (HA immunofluorescence, high content imaging); type: cell-based; settings: T-Rex 293 HA-BRAF G466V; for DC50: half maximal degradation, read-out: BRaf G466V DC50; for Dmax: maximum degradation observed
T2 construct: expressed in transfected cells
T2 sequence (P15056 whole entry G466V): as the sequence (P15056 whole entry V600E) above, with G466V, E600V counted along it
Method in brief: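 Doxycycline-induced (0.75 ng/mL) cells treated 24 h at 37 °C with compound from 30 nM to 3 pM (0.1% DMSO). After fixation and permeabilisation, HA-tagged BRAF G466V immunostained and quantified by high-content imaging. DC50 and Dmax (percent of control) derived.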

| DC50 [1] [nM] | Dmax [1] [%] | DC50 [2] [nM] | Dmax [2] [%] | Structure (SMILES) |
| --- | --- | --- | --- | --- |
| 5 to 50 | 35 to 70 | 1 to 10 | > 70 | O=C1CC[C@H](N2Cc3cc(OC[C@H](O)CN4CC5(C4)CN(c4ccc(-c6cnc7[nH]cc(C(=O)c8c(F)ccc(NS(=O)(=O)N9CC[C@@H](F)C9)c8F)c7c6)cc4)C5)ccc3C2=O)C(=O)N1 [Compound 123, (3R)—N-[3-[5-[4-[6-[(2R)-3-[2-[(3S)-2,6-dioxo-3-piperidyl]-1-oxo-isoindolin-5-yl]oxy-2-hydroxy-propyl]-2,6-diazaspiro[3.3]heptan-2-yl]phenyl]-1H-pyrrolo[2,3-b]pyridine-3-carbonyl]-2,4-difluoro-phenyl]-3-fluoro-pyrrolidine-1-sulfonamide] |
| 5 to 50 | 35 to 70 | 1 to 10 | > 70 | O=C1CC[C@@H](N2Cc3cc(OC[C@H](O)CN4CC5(C4)CN(c4ccc(-c6cnc7[nH]cc(C(=O)c8c(F)ccc(NS(=O)(=O)N9CC[C@@H](F)C9)c8F)c7c6)cc4)C5)ccc3C2=O)C(=O)N1 [Compound 124, (3R)—N-[3-[5-[4-[6-[(2R)-3-[2-[(3R)-2,6-dioxo-3-piperidyl]-1-oxo-isoindolin-5-yl]oxy-2-hydroxy-propyl]-2,6-diazaspiro[3.3]heptan-2-yl]phenyl]-1H-pyrrolo[2,3-b]pyridine-3-carbonyl]-2,4-difluoro-phenyl]-3-fluoro-pyrrolidine-1-sulfonamide] |
| 5 to 50 | 35 to 70 | 1 to 10 | > 70 | O=C1CC[C@H](N2Cc3cc(C[C@@H](O)CN4CC5(C4)CN(c4ccc(-c6cnc7[nH]cc(C(=O)c8c(F)ccc(NS(=O)(=O)N9CC[C@@H](F)C9)c8F)c7c6)cc4)C5)ccc3C2=O)C(=O)N1 [Compound 128, (3R)-N-{3-[5-(4-{6-[(2R)-3-{2-[(3S)-2,6-dioxopiperidin-3-yl]-1-oxo-2,3-dihydro-1H-isoindol-5-yl}-2-hydroxypropyl]-2,6-diazaspiro[3.3]heptan-2-yl}phenyl)-1H-pyrrolo[2,3-b]pyridine-3-carbonyl]-2,4-difluorophenyl}-3-fluoropyrrolidine-1-sulfonamide] |
| 5 to 50 | 35 to 70 | 1 to 10 | > 70 | O=C1CC[C@@H](N2Cc3cc(C[C@@H](O)CN4CC5(C4)CN(c4ccc(-c6cnc7[nH]cc(C(=O)c8c(F)ccc(NS(=O)(=O)N9CC[C@@H](F)C9)c8F)c7c6)cc4)C5)ccc3C2=O)C(=O)N1 [Compound 129, (3R)-N-{3-[5-(4-{6-[(2R)-3-{2-[(3R)-2,6-dioxopiperidin-3-yl]-1-oxo-2,3-dihydro-1H-isoindol-5-yl}-2-hydroxypropyl]-2,6-diazaspiro[3.3]heptan-2-yl}phenyl)-1H-pyrrolo[2,3-b]pyridine-3-carbonyl]-2,4-difluorophenyl}-3-fluoropyrrolidine-1-sulfonamide] |
| 5 to 50 | 35 to 70 | 1 to 10 | 35 to 70 | O=C1CCC(N2Cc3cc(C[C@H](O)CN4CC5(C4)CN(c4ccc(-c6cnc7[nH]cc(C(=O)c8c(F)ccc(NS(=O)(=O)N9CC[C@@H](F)C9)c8F)c7c6)cc4)C5)ccc3C2=O)C(=O)N1 (stereo partly drawn) [Compound 130, (3R)-N-{3-[5-(4-{6-[(2S)-3-[2-(2,6-dioxopiperidin-3-yl)-1-oxo-2,3-dihydro-1H-isoindol-5-yl]-2-hydroxypropyl]-2,6-diazaspiro[3.3]heptan-2-yl}phenyl)-1H-pyrrolo[2,3-b]pyridine-3-carbonyl]-2,4-difluorophenyl}-3-fluoropyrrolidine-1-sulfonamide] |

The next lines start with the molecule.

| Structure (SMILES) | DC50 [1] [nM] | Dmax [1] [%] | DC50 [2] [nM] | Dmax [2] [%] |
| --- | --- | --- | --- | --- |
| O=C1CCC(N2Cc3cc(OC[C@@H](O)CN4CC5(C4)CN(c4ccc(-c6cnc7[nH]cc(C(=O)c8c(F)ccc(NS(=O)(=O)N9CC[C@@H](F)C9)c8F)c7c6)cc4)C5)ccc3C2=O)C(=O)N1 (stereo partly drawn) [Compound 122, (3R)-N-{3-[5-(4-{6-[(2S)-3-{[2-(2,6-dioxopiperidin-3-yl)-1-oxo-2,3-dihydro-1H-isoindol-5-yl]oxy}-2-hydroxypropyl]-2,6-diazaspiro[3.3]heptan-2-yl}phenyl)-1H-pyrrolo[2,3-b]pyridine-3-carbonyl]-2,4-difluorophenyl}-3-fluoropyrrolidine-1-sulfonamide] | 5 to 50 | 35 to 70 | 1 to 10 | > 70 |
| O=C1CCC(N2Cc3cc(C4CCN(C[C@@H]5CCN(c6ccc(-c7cnc8[nH]cc(C(=O)c9c(F)ccc(NS(=O)(=O)N%10CC[C@@H](F)C%10)c9F)c8c7)cc6)C[C@@H]5F)CC4)ccc3C2=O)C(=O)N1 (stereo partly drawn) [Compound 125, (3R)-N-[3-(5-{4-[(3R,4S)-4-({4-[2-(2,6-dioxopiperidin-3-yl)-1-oxo-2,3-dihydro-1H-isoindol-5-yl]piperidin-1-yl}methyl)-3-fluoropiperidin-1-yl]phenyl}-1H-pyrrolo[2,3-b]pyridine-3-carbonyl)-2,4-difluorophenyl]-3-fluoropyrrolidine-1-sulfonamide] | 5 to 50 | 35 to 70 | 1 to 10 | > 70 |
| CN(CCN1CCN(c2ccc(-c3cnc4[nH]cc(C(=O)c5c(F)ccc(NS(=O)(=O)N6CC[C@@H](F)C6)c5F)c4c3)cc2)CC1)[C@H]1C[C@@H](Oc2ccc3c(c2)CN(C2CCC(=O)NC2=O)C3=O)C1 (stereo partly drawn) [Compound 126, (3R)-N-[2,4-difluoro-3-(5-{4-[4-(2-{methyl[(1s,3s)-3-{[2-(2,6-dioxopiperidin-3-yl)-1-oxo-2,3-dihydro-1H-isoindol-5-yl]oxy}cyclobutyl]amino}ethyl)piperazin-1-yl]phenyl}-1H-pyrrolo[2,3-b]pyridine-3-carbonyl)phenyl]-3-fluoropyrrolidine-1-sulfonamide] | 5 to 50 | 35 to 70 | 1 to 10 | 35 to 70 |
| O=C1CCC(N2Cc3cc(C4CCN(CCC5CCN(c6ccc(-c7cnc8[nH]cc(C(=O)c9c(F)ccc(NS(=O)(=O)N%10CC[C@@H](F)C%10)c9F)c8c7)cc6)CC5)CC4)ccc3C2=O)C(=O)N1 (stereo partly drawn) [Compound 127, (3R)-N-[3-(5-{4-[4-(2-{4-[2-(2,6-dioxopiperidin-3-yl)-1-oxo-2,3-dihydro-1H-isoindol-5-yl]piperidin-1-yl}ethyl)piperidin-1-yl]phenyl}-1H-pyrrolo[2,3-b]pyridine-3-carbonyl)-2,4-difluorophenyl]-3-fluoropyrrolidine-1-sulfonamide] | < 5 | < 35 | 1 to 10 | > 70 |
| O=C1CCC(N2Cc3cc(N4CCN(CC5CN(c6ccc(-c7cnc8[nH]cc(C(=O)c9c(F)ccc(NS(=O)(=O)N%10CC[C@@H](F)C%10)c9F)c8c7)cc6F)C5)CC4)ccc3C2=O)C(=O)N1 (stereo partly drawn) [Compound 131, (3R)-N-[3-(5-{4-[3-({4-[2-(2,6-dioxopiperidin-3-yl)-1-oxo-2,3-dihydro-1H-isoindol-5-yl]piperazin-1-yl}methyl)azetidin-1-yl]-3-fluorophenyl}-1H-pyrrolo[2,3-b]pyridine-3-carbonyl)-2,4-difluorophenyl]-3-fluoropyrrolidine-1-sulfonamide] | 5 to 50 | 35 to 70 | 1 to 10 | 35 to 70 |
